Reference: patent US20240108610A1, “RECTAL ADMINISTRATION OF ROFLUMILAST FOR THE TREATMENT OF CROHN'S DISEASE” (King Abdulaziz University, priority 2022, published 2024)
Marks after values point to notes of the source that are not given here.

Tests used:
IL-2 = experiment: Serum IL-2 ELISA in TNBS-induced colitis; type: in vivo, rat; conditions: means±SE, n = 8
Protocol: Chronic colitis was induced by weekly rectal injections of increasing doses of TNBS over 6 weeks (15, 30, 45, 60, 60, and 60 mg from day 0 to day 35), as previously described (4,12). Briefly, after food deprivation for 24 h, rats were anesthetized with an intraperitoneal injection of 1% isoflurane. TNBS was dissolved in ethanol (50%) and instilled into the colon using a cannula (0.25 mL), and then the rats were held upside down for 3 min to prevent escape of the intracolonic TNBS. Roflumilast was dissolved in dimethyl sulfoxide and diluted in 0.5% carboxymethyl cellulose sodium to a final concentration of 5.0 mg·kg^−1·day^−1 as previously described (13). Five groups of rats (n=8) were established: normal control (NC group), TNBS-treated (TNBS group, positive control), and three TNBS-treated groups that received oral sulfasalazine (SS group, 500 mg/kg) (14), oral roflumilast (by gastric gavage, OR group, 5 mg/kg), or rectal roflumilast (RR group, 5 mg/kg). Treatments were administered once daily in a volume of 200 μL for 15 days starting 48 h after the induction of colitis (from day 37) (15), and the control rats received equal amounts of vehicle. At the end of the treatment period, the rats were evaluated with the colitis activity score. To detect the effects of the treatments on systemic inflammatory processes, blood was collected for measurements of the proinflammatory mediators TNF-α, IL-2, and IL-6. At the end of the 15-day treatment period, the rats were sacrificed by cervical dislocation, and the colon was isolated, cleaned of feces, and measured for weight and length. Colonic myeloperoxidase (MPO) activity and glutathione (GSH) and malonaldehyde (MDA) levels were measured. The colon was examined macroscopically for gross changes and microscopically in sections stained with hematoxylin and eosin (H&E), Masson trichrome, and Periodic Acid Schiff (PAS) stains as well as KI-67 and TNF-α immunostaining. Blood was collected through cardiac puncture. The serum was obtained and stored at −80° C. until analysis. […]

MPO = experiment: Colonic MPO in colonic tissue homogenates, TNBS-induced colitis; type: in vivo, rat; conditions: means±SE, n = 8
Protocol: Chronic colitis was induced by weekly rectal injections of increasing doses of TNBS over 6 weeks (15, 30, 45, 60, 60, and 60 mg from day 0 to day 35), as previously described (4,12). Briefly, after food deprivation for 24 h, rats were anesthetized with an intraperitoneal injection of 1% isoflurane. TNBS was dissolved in ethanol (50%) and instilled into the colon using a cannula (0.25 mL), and then the rats were held upside down for 3 min to prevent escape of the intracolonic TNBS. Roflumilast was dissolved in dimethyl sulfoxide and diluted in 0.5% carboxymethyl cellulose sodium to a final concentration of 5.0 mg·kg^−1·day^−1 as previously described (13). Five groups of rats (n=8) were established: normal control (NC group), TNBS-treated (TNBS group, positive control), and three TNBS-treated groups that received oral sulfasalazine (SS group, 500 mg/kg) (14), oral roflumilast (by gastric gavage, OR group, 5 mg/kg), or rectal roflumilast (RR group, 5 mg/kg). Treatments were administered once daily in a volume of 200 μL for 15 days starting 48 h after the induction of colitis (from day 37) (15), and the control rats received equal amounts of vehicle. At the end of the treatment period, the rats were evaluated with the colitis activity score. […] At the end of the 15-day treatment period, the rats were sacrificed by cervical dislocation, and the colon was isolated, cleaned of feces, and measured for weight and length. Colonic myeloperoxidase (MPO) activity and glutathione (GSH) and malonaldehyde (MDA) levels were measured. […] The levels of MPO (a marker of neutrophil activity), GSH (one of the most important cellular antioxidants), and MDA (an indicator of lipid peroxidation) in colonic tissue homogenates were measured using the commercially available kits as previously described: MPO ELISA kit (Innovative Research) (18), GSH colorimetric assay kit (Innovative Research) (19), and MDA ELISA kit (Neobio Lab Comp., USA) (20).

[1] = oral, once daily for 15 days, SS 500 mg/kg, OR 5 mg/kg
[2] = rectal, 5 mg/kg once daily for 15 days

Structure (SMILES)	serum level of IL-2 (IL-2; [1])	serum level of IL-2 (IL-2; [2])	colonic MPO activity (MPO; [1])	colonic MPO activity (MPO; [2])
O=C(Nc1c(Cl)cncc1Cl)c1ccc(OC(F)F)c(OCC2CC2)c1 [roflumilast]	302.75 ± 11.32^g, h, i pg/mL	363.87 ± 12.73^g pg/mL	23.89 ± 0.92^a, b, c μ/g	28.17 ± 1.00^a μ/g
O=C(O)c1cc(/N=N/c2ccc(S(=O)(=O)Nc3ccccn3)cc2)ccc1O [sulfasalazine]	257.97 ± 7.72^g pg/mL		18.38 ± 0.87^a μ/g	
